Results reported in US7605241B2, “Synthesis of inhibitors of p90Rsk” (University of Virginia Patent Foundation, priority 2005, dated 2009).

Legend:
MEK = settings: upstream kinase; cited from earlier work
Raf = settings: upstream kinase; cited from earlier work
PKC = settings: upstream kinase; cited from earlier work
p90 RSK = p90 RSK (Homo sapiens, UniProt P51812); assay: inhibition of the kinase activity of p90 RSK (Table 1); format: biochemical
Text: Methods for testing the ability of SL0101, and analogs and derivatives thereof, synthesized according to the methods disclosed herein, to inhibit p90 ribosomal S6 kinase (RSK) activity and cellular and metabolic processes downstream from RSK activity, are known to those of ordinary skill in the art. Some specific assays are provided in citation number 5 (Smith et al., Cancer Res., 2005, 65:1027), which is incorporated by reference in its entirety. The assays include various kinase assays, cell cycle analysis, gene silencing, and analysis of cells and tissues in vitro and in vivo.
Some specific assays are provided in citation number 5 (Smith et al., Cancer Res., 2005, 65:1027), which is incorporated by reference in its entirety.

Sequence of p90 RSK (P51812 whole entry): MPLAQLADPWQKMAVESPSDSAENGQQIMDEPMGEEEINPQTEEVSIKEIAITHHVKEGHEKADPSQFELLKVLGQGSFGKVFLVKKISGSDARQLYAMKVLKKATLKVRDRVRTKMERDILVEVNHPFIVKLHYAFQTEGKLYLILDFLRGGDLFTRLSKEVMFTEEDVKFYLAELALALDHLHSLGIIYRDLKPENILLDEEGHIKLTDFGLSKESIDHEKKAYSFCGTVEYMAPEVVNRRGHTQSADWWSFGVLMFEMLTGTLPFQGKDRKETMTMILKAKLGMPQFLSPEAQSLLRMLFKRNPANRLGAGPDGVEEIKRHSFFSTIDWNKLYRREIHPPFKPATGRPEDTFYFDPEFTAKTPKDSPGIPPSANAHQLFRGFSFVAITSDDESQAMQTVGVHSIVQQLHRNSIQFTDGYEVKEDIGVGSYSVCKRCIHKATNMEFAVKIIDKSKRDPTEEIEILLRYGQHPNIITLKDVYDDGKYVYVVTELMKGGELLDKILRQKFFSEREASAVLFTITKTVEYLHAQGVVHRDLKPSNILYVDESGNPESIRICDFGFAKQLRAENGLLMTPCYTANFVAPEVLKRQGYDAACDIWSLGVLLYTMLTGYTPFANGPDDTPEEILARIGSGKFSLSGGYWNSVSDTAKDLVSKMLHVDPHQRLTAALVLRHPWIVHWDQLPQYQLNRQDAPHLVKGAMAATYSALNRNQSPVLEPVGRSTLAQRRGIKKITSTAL

IC50 (p90 RSK) [µM]	SMILES	inhibition of MEK (MEK)	inhibition of Raf (Raf)	inhibition of PKC (PKC)
	CC(=O)OC1C(C)OC(Oc2c(-c3ccc(O)cc3)oc3cc(O)cc(O)c3c2=O)C(O)C1OC(C)=O (centres unmarked) [SL0101-1]	not to inhibit	not to inhibit	not to inhibit
0.58	CC(=O)OC1C(C)OC(Oc2c(-c3ccc(O)cc3)oc3cc(O)cc(O)c3c2=O)C(OC(C)=O)C1O (centres unmarked) [SL0101-3]			
0.189	CC(=O)OC1C(C)OC(Oc2c(-c3ccc(O)cc3)oc3cc(O)cc(O)c3c2=O)C(O)C1O (centres unmarked) [SL0101-2]			
